Assay results taken from PubChem BioAssay (NCI).
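Compound exposure: 48 hours, 5 concentrations, 96-well plates. GI50 = concentration required for 50% inhibition of growth. At the TGI there is no net growth.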

Experiments:
Assay in all cases: NCI-60 cell line screen, 48 h
[1] = test system: ACHN renal
[2] = test system: RXF 393 renal
[3] = test system: DU-145 prostate
[4] = test system: OVCAR-8 ovarian
[5] = test system: SN12C renal
[6] = test system: OVCAR-4 ovarian
[7] = test system: MOLT-4 leukemia
[8] = test system: SF-295 CNS
[9] = test system: NCI-H23 lung
[10] = test system: HCC-2998 colon
[11] = test system: SNB-19 CNS
[12] = test system: MDA-MB-231 breast
[13] = test system: SK-MEL-5 melanoma
[14] = test system: SW-620 colon
[15] = test system: MDA-N
[16] = test system: CCRF-CEM leukemia
[17] = test system: OVCAR-5 ovarian
[18] = test system: HL-60(TB) leukemia
[19] = test system: UO-31 renal
[20] = test system: HOP-62 NSCLC
[21] = test system: UACC-257 melanoma
[22] = test system: HS 578T breast
[23] = test system: LOX IMVI melanoma
[24] = test system: M14 melanoma
[25] = test system: SF-539 CNS
[26] = test system: MDA-MB-435
[27] = test system: BT-549 breast
[28] = test system: MALME-3M melanoma
[29] = test system: RPMI-8226 leukemia
[30] = test system: NCI-H226 lung
[31] = test system: 786-0 renal
[32] = test system: IGROV1 ovarian
[33] = test system: EKVX NSCLC
[34] = test system: HCT-15 colon
[35] = test system: CAKI-1 renal
[36] = test system: SK-OV-3 ovarian
[37] = test system: SK-MEL-2 melanoma
[38] = test system: T-47D breast
[39] = test system: NCI/ADR-RES ovarian
[40] = test system: K-562 leukemia
[41] = test system: COLO 205 colon
[42] = test system: NCI-H460 lung
[43] = test system: SF-268 CNS
[44] = test system: TK-10 renal
[45] = test system: A549 NSCLC
[46] = test system: PC-3 prostate
[47] = test system: HT29 colon
[48] = test system: OVCAR-3 ovarian
[49] = test system: U251 CNS
[50] = test system: HOP-92 NSCLC
[51] = test system: A498 renal
[52] = test system: UACC-62 melanoma
[53] = test system: KM12 colon
[54] = test system: SK-MEL-28 melanoma
[55] = test system: SR leukemia
[56] = test system: HCT-116 colon
[57] = test system: MCF7 breast
[58] = test system: SNB-75 CNS
[59] = test system: NCI-H522 lung

## COc1cc2c(cc1OC)C(=O)/C(=C/c1ccc(Cl)cc1)CC2
[1]
  TGI: > 10 µM
[2]
  TGI: > 10 µM
[3]
  TGI: > 10 µM
[4]
  TGI: > 10 µM
[5]
  TGI: > 10 µM
[6]
  TGI: > 10 µM
[7]
  TGI: > 10 µM
[8]
  TGI: > 10 µM
[9]
  TGI: > 10 µM
[10]
  TGI: > 10 µM
[11]
  TGI: > 10 µM
[12]
  TGI: > 10 µM
[13]
  TGI: > 10 µM
[14]
  TGI: > 10 µM
[15]
  TGI: > 10 µM
[16]
  TGI: > 10 µM
[17]
  TGI: > 10 µM
[18]
  TGI: > 10 µM
[19]
  TGI: > 10 µM
[20]
  TGI: > 10 µM
[21]
  TGI: > 10 µM
[22]
  TGI: > 10 µM
[23]
  TGI: > 10 µM
[24]
  TGI: > 10 µM
[25]
  TGI: > 10 µM
[26]
  TGI: > 10 µM
[27]
  TGI: > 10 µM
[28]
  TGI: > 10 µM
[29]
  TGI: > 10 µM
[30]
  TGI: > 10 µM
[31]
  TGI: > 10 µM
[32]
  TGI: > 10 µM
[33]
  TGI: > 10 µM
[34]
  TGI: > 10 µM
[35]
  TGI: > 10 µM
[36]
  TGI: > 10 µM
[37]
  TGI: > 10 µM
[38]
  TGI: > 10 µM
[39]
  TGI: > 10 µM
[40]
  TGI: > 10 µM
[41]
  TGI: > 10 µM
[42]
  TGI: > 10 µM
[43]
  TGI: > 10 µM
[44]
  TGI: > 10 µM
[45]
  TGI: > 10 µM
[46]
  TGI: > 10 µM
[47]
  TGI: > 10 µM
[48]
  TGI: > 10 µM
[49]
  TGI: > 10 µM
[50]
  TGI: > 10 µM
[51]
  TGI: > 10 µM
[52]
  TGI: > 10 µM
[53]
  TGI: > 10 µM
[54]
  TGI: > 10 µM
[55]
  TGI: > 10 µM
[56]
  TGI: > 10 µM
[57]
  TGI: > 10 µM

## Clc1cc(Cl)cc(C=NC23CC4CC(CC(C4)C2)C3)c1
[1]
  TGI: > 10 µM
[2]
  TGI: > 10 µM
[3]
  TGI: > 10 µM
[4]
  TGI: > 10 µM
[5]
  TGI: > 10 µM
[6]
  TGI: > 10 µM
[7]
  TGI: > 10 µM
[8]
  TGI: > 10 µM
[9]
  TGI: > 10 µM
[10]
  TGI: > 10 µM
[11]
  TGI: > 10 µM
[12]
  TGI: > 10 µM
[13]
  TGI: > 10 µM
[14]
  TGI: > 10 µM
[15]
  TGI: > 10 µM
[16]
  TGI: > 10 µM
[17]
  TGI: > 10 µM
[18]
  TGI: > 10 µM
[20]
  TGI: > 10 µM
[21]
  TGI: > 10 µM
[22]
  TGI: > 10 µM
[23]
  TGI: > 10 µM
[24]
  TGI: > 10 µM
[25]
  TGI: > 10 µM
[26]
  TGI: > 10 µM
[27]
  TGI: > 10 µM
[28]
  TGI: > 10 µM
[29]
  TGI: > 10 µM
[58]
  TGI: > 10 µM
[30]
  TGI: > 10 µM
[31]
  TGI: > 10 µM
[32]
  TGI: > 10 µM
[33]
  TGI: > 10 µM
[34]
  TGI: > 10 µM
[35]
  TGI: > 10 µM
[36]
  TGI: > 10 µM
[37]
  TGI: > 10 µM
[38]
  TGI: > 10 µM
[39]
  TGI: > 10 µM
[40]
  TGI: > 10 µM
[41]
  TGI: > 10 µM
[42]
  TGI: > 10 µM
[43]
  TGI: > 10 µM
[44]
  TGI: > 10 µM
[45]
  TGI: > 10 µM
[46]
  TGI: > 10 µM
[47]
  TGI: > 10 µM
[48]
  TGI: > 10 µM
[49]
  TGI: > 10 µM
[59]
  TGI: > 10 µM
[50]
  TGI: > 10 µM
[51]
  TGI: > 10 µM
[52]
  TGI: > 10 µM
[53]
  TGI: > 10 µM
[54]
  TGI: > 10 µM
[55]
  TGI: > 10 µM
[56]
  TGI: > 10 µM
[57]
  TGI: > 10 µM

## COc1ccc(C2CC(C)(O)Oc3cc4c(cc32)OCO4)cc1 (stereo not given)
[1]
  TGI: > 100 µM
[2]
  TGI: > 39 µM
[3]
  TGI: > 100 µM
[4]
  TGI: > 100 µM
[5]
  TGI: > 100 µM
[6]
  TGI: > 100 µM
[7]
  TGI: 88.6 µM
[8]
  TGI: > 100 µM
[9]
  TGI: > 100 µM
[10]
  TGI: > 100 µM
[11]
  TGI: > 100 µM
[12]
  TGI: > 100 µM
[13]
  TGI: 69 µM
[14]
  TGI: > 100 µM
[15]
  TGI: 36.4 µM
[16]
  TGI: > 82.8 µM
[17]
  TGI: > 100 µM
[18]
  TGI: 68.4 µM
[19]
  TGI: > 100 µM
[20]
  TGI: > 100 µM
[21]
  TGI: > 100 µM
[22]
  TGI: 97.9 µM
[23]
  TGI: > 100 µM
[24]
  TGI: > 87.8 µM
[25]
  TGI: > 100 µM
[26]
  TGI: 42.9 µM
[27]
  TGI: > 88 µM
[28]
  TGI: > 100 µM
[29]
  TGI: > 100 µM
[58]
  TGI: > 100 µM
[30]
  TGI: > 100 µM
[31]
  TGI: > 100 µM
[32]
  TGI: > 100 µM
[33]
  TGI: > 100 µM
[34]
  TGI: > 100 µM
[35]
  TGI: > 100 µM
[36]
  GI50: 43.2 µM
  TGI: > 100 µM
[37]
  TGI: 75.2 µM
[38]
  TGI: > 50.5 µM
[39]
  TGI: > 78.2 µM
[40]
  TGI: 98.7 µM
[41]
  TGI: 46 µM
[42]
  TGI: > 100 µM
[43]
  TGI: > 100 µM
[44]
  TGI: > 100 µM
[45]
  TGI: > 100 µM
[46]
  TGI: > 81.1 µM
[47]
  TGI: > 82.6 µM
[48]
  TGI: > 100 µM
[49]
  TGI: > 100 µM
[59]
  TGI: 44.6 µM
[50]
  TGI: 69.5 µM
[51]
  TGI: > 91.6 µM
[52]
  TGI: > 100 µM
[53]
  TGI: > 100 µM
[54]
  TGI: > 100 µM
[55]
  TGI: > 78.9 µM
[56]
  TGI: > 100 µM
[57]
  TGI: > 100 µM
